Reference: article PMC10090446, “Population pharmacokinetic analysis and dosing optimization of polymyxin B in critically ill patients” (Frontiers in Pharmacology, 2023)
Read-outs that look alike come from different tables or passages of the source. Positions of bridges follow the written chain, without caps; N, C: chain ends. Non-standard residues stand in square brackets, D forms with d. Residues, ends and D or L forms follow the SMILES beside them. *: point of attachment. X1 = CC[C@H](C)CCCCC(=O)*; Dab = NCC[C@H](N)C(=O)O

Assays:
[1] = critically ill patients; ref Ye et al., 2022; cited from earlier work
Excerpt: Over the last decade, more pathogenic bacteria have developed resistance, making many first-line antibiotics ineffective against infections ([Mohapatra et al., 2021]). Polymyxins were used extensively as salvage therapeutic agents for combating multidrug-resistant gram-negative bacteria (MDR-GNB) infections ([Falagas et al., 2021]). […] These specific physiolog ...

[2] = Population pharmacokinetic (PPK) model, non-parametric adaptive grid (Pmetrics), critically ill patients; format: in vivo, human; settings: for clearance: human
Excerpt: We gather data from critically ill patients (≥18 years old) who were given intravenous drip polymyxin B treatment with blood concentration monitoring at the hospital from November 2021 to September 2022. The attending physician decided to administer polymyxin B. At the same time, patients who received continuous renal replacement therapy (CRRT) (n = 10) or extracorporeal membrane oxygenation (ECMO) (n = 2) at the time of blood collection were excluded. Patients’ information, including gender, age, WT, serum creatinine (Scr), CCR, ALB, APACHE-II, infection diagnosis, and pathogenic bacteria, were obtained from the electronic system for medical records. CCR was generated by adopting the Cockcroft—Gault equation with WT and age ([Cucci et al., 2022]). The Ethical Committees of the Second Affiliated Hospital of the South China University of Technology authorized the study (K-2022-020-01).
Patients were treated with polymyxin B, and plasma samples were collected ≥ 48 h after the treatment. Each patient contributed clinical samples, of which 37.5% (n = 24) were sampled with troughs (within 1 h before administration), 35.9% (n = 23) were sampled with peaks (within 1 h after the end of the infusion), and 26.6% (n = 17) were sampled at 6-8 h after the infusion. The dosing regimens of polymyxin B were a loading dose of 100 mg–150 mg and a maintenance dose of 50 mg–75 mg q12h, and the infusion duration was about 1–2 h. In preparation for analysis, samples were centrifuged for 10 min at 3000 r min^-1 after collection, and the upper plasma after centrifugation was stored at −20°C.
According to previous studies, total polymyxin B1, polymyxin B2, and polymyxin B1-Ile concentrations in human blood plasma were quantified using LC-MS/MS ([Meng et al., 2016]; [Hee et al., 2017]). The standard used in our experiments was the USP standard with the batch number of R104F0. The chromatographic column was the Kinetex C18 (3 μm × 2.1 mm×100 mm. Phenomenex). A: B mobile phase was 0.1% formic acid to acetonitrile. With changes in the linear velocity ratio, gradient elution was as follows: 15% −15% B, 0–2.0 min; 15%–10% B, 2.01–4.0 min; 10%–30% B, 4.01–5.0 min; 15% B, 5.01 min; and 15%–15% B, 5.02–10 min. The flow rate was constrained to 0.8 mL min^-1, and the column temperature was set to 40°C. The parent/daughter ion mass ratios used in the mass spectrometry were m/z 602.6/241.2 (polymyxin B1 and B1-Ile) and m/z 595.6/202.1 (polymyxin B2). Plasma samples (100 μL) were collected from centrifuged blood samples, mixed with 500 μL precipitant (acetonitrile with 6.67% formic acid) and vortexed well for 1 min. The lower limit of quantification (LLOQ) of the bioanalytical method used for quantifying polymyxin B1, B2, and B1-Ile concentrations was 0.19, 0.02 and 0.02 mg L^-1, respectively. The linear relationships of polymyxin B1, B2, and B1-Ile concentrations in the range of 0.19–24.13 mg L^-1, 0.02–2.7 mg L^-1 and 0.02–2.38 mg L^-1 were considered good (R^2 = 0.99677, R^2 = 0.99656, R^2 = 0.99484) and the accuracy was within 95.3%–105.3%, 92.2%–104.8%, and 95.8%–105.4%. […] Finally, 200 μL of the supernatant from the centrifugation of the combination at 14,000 r min^-1 for 10 min was employed to measure the amounts of polymyxin B.
In order to analyze the total concentrations of polymyxin B, Pmetrics version 1.9.7 (Laboratory of Applied Pharmacokinetics and Bioinformatics, Los Angeles, CA) was used by R version 4.1.3 ([Neely et al., 2012]). PK parameters were evaluated by a one-compartment model and a two-compartment model. The multiplicative error model (SD ×gamma), which requires the observation concentration values to be weighted by the reciprocal of the error, was used to calculate the error structure model. Gamma is the process noise that results from incorrectly specified sampling time, dosage, etc. […]

[3] = data splitting, 20% of the data
[4] = data splitting, 80% of the data
[5] = final model 6, bootstrap, median
[6] = final model 6, full data set, 22 critically ill patients, iv, mean
[7] = final model 6, full data set, median

For `CC[C@H](C)CCCCC(=O)N[C@@H](CCN)C(=O)N[C@H](C(=O)N[C@@H](CCN)C(=O)N[C@H]1CCNC(=O)[C@H]([C@@H](C)O)NC(=O)[C@H](CCN)NC(=O)[C@H](CCN)NC(=O)[C@H](CC(C)C)NC(=O)[C@@H](Cc2ccccc2)NC(=O)[C@H](CCN)NC1=O)[C@@H](C)O` [polymyxin B] (X1-[Dab]T[Dab][Dab][Dab][dF]L[Dab][Dab]T; lactam 4-C), the “rate of reaching the standard polymyxin B exposure AUC at a typical clinical dose” value [1] is listed as “approximately 54.3%”, the “Q, mean value” [2, 3] is listed as 2.56 L/h and the “Vc, mean value” [2, 3] is listed as 13.58 L. For the same molecule, the “Vp, mean value” [2, 3] was 64.60 L, the “Q, mean value” [2, 4] was 3.44 L/h and the “Vc, mean value” [2, 4] was 17.82 L. The “Vp, mean value” [2, 4] was 40.26 L, the “CL, bootstrap median” value [2, 5] was 1.22 L/h and the “Q, bootstrap median” value [2, 5] was 2.31 L/h. For the same molecule, the “Vc, bootstrap median” value [2, 5] was 17.15 L, the “Vp, bootstrap median” value [2, 5] was 66.34 L and the “Q, mean” value [2, 6] was 3.04 L/h. For the same molecule, the “Vc, mean” value [2, 6] was 16.64 ± 12.74 L, the “Vp, mean” value [2, 6] was 66.20 L and the “Q, median” value [2, 7] was 2.34 L/h. The “Vc, median” value [2, 7] was 13.52 L, the “Vp, median” value [2, 7] was 76.53 L and the clearance ([2]; plasma, iv, data splitting, 20% of the data, read-out: CL, mean value (converted)) was 21.8 mL/min. For the same molecule, the clearance ([2]; plasma, iv, data splitting, 80% of the data, read-out: CL, mean value (converted)) was 22.5 mL/min, the clearance ([2]; plasma, iv, final model 6, full data set, 22 critically ill patients, iv, median, read-out: CL, median (converted)) was 20.3 mL/min and the clearance ([2]; final model 6 (two-compartment, covariates age and ALB), full data set, 22 critically ill patients, 64 samples, iv infusion, steady state, total plasma concentration, LC-MS/MS, NPAG, mean, read-out: CL, mean (converted)) was 20.7 mL/min.
